Results taken from ChEMBL document CHEMBL1201862, “PubChem BioAssay data set” (2004).
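In this assay, cells in 96-well plates receive the compound at five concentrations for 48 hours. Endpoints are linearly interpolated between the surrounding concentrations. GI50 = concentration required for 50% inhibition of growth.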 Active and inactive are the calls of the source. Cut-off read from the data, not from the text of the source: active = GI50 up to about 1.1 µM and inactive = higher.

Tests used:
Assay in all cases: inhibition of tumour cell growth, NCI panel, 48 h
[1] = test system: HOP-62
[2] = test system: DU-145
[3] = test system: UACC-257
[4] = test system: SK-OV-3
[5] = test system: MOLT-4
[6] = test system: LOX IMVI
[7] = test system: SNB-75
[8] = test system: RXF 393
[9] = test system: ACHN
[10] = test system: NCI-H460
[11] = test system: COLO 205
[12] = test system: MCF7
[13] = test system: SW-620
[14] = test system: UO-31
[15] = test system: SN12C
[16] = test system: EKVX
[17] = test system: T47D
[18] = test system: IGROV-1
[19] = test system: 786-0
[20] = test system: OVCAR-8

Compound | GI50 [1] | GI50 [2] | GI50 [3] | GI50 [4] | GI50 [5] | GI50 [6] | GI50 [7] | GI50 [8] | GI50 [9] | GI50 [10] | GI50 [11] | GI50 [12] | GI50 [13] | GI50 [14] | GI50 [15] | GI50 [16] | GI50 [17] | GI50 [18] | GI50 [19] | GI50 [20]
COc1ccc2c(c1O)[C@@]13CCCC=C1[C@@H](C2)N(C)CC3 | > 100 µM (inactive) | > 100 µM (inactive) | > 100 µM (inactive) | > 100 µM (inactive) | 44.3 µM (inactive) | 41.4 µM (inactive) | 36.7 µM (inactive) | > 100 µM (inactive) | > 100 µM (inactive) | > 100 µM (inactive) | 97.1 µM (inactive) | 81.5 µM (inactive) | 69.3 µM (inactive) | 39 µM (inactive) | > 100 µM (inactive) | > 100 µM (inactive) | 90.2 µM (inactive) | > 100 µM (inactive) | > 100 µM (inactive) | > 100 µM (inactive)
Cc1sc2ncnc(NCCc3ccccc3)c2c1C | 12.8 µM (inactive) | 18.8 µM (inactive) | 1.04 µM (active) | 22.6 µM (inactive) | 14.9 µM (inactive) | 4.82 µM (inactive) | 16.4 µM (inactive) | 12.3 µM (inactive) | 12.4 µM (inactive) | 8.99 µM (inactive) | 11 µM (inactive) | 12.5 µM (inactive) | 25.5 µM (inactive) | 15.6 µM (inactive) | 10.6 µM (inactive) | 1.68 µM (inactive) | 2.29 µM (inactive) | 12.7 µM (inactive) | 16 µM (inactive) | 11.8 µM (inactive)
COc1ccc(C(OCC2OC(n3ccc(NC(=O)c4ccccc4)nc3=O)CC2OP2(=S)SCCS2)(c2ccccc2)c2ccc(OC)cc2)cc1 (stereo not given) | 20.7 µM (inactive) | 32.9 µM (inactive) | 30.1 µM (inactive) | 25.2 µM (inactive) | 37.5 µM (inactive) | 14.9 µM (inactive) | 24.5 µM (inactive) | 33.2 µM (inactive) | 18.6 µM (inactive) | 33.6 µM (inactive) | > 10 µM (inactive) | 37.1 µM (inactive) | 18.4 µM (inactive) | > 100 µM (inactive) | 21.1 µM (inactive) | 34.5 µM (inactive) | 36.3 µM (inactive) | 33.5 µM (inactive) | 24.4 µM (inactive) | 27.2 µM (inactive)
COc1cccc2c1CCc1cc3c(N)nc(N)nc3nc1-2 | 5.4 µM (inactive) | 5.16 µM (inactive) | 5.73 µM (inactive) | 17.7 µM (inactive) | 0.653 µM (active) | 0.34 µM (active) | 5.98 µM (inactive) | 3.02 µM (inactive) | 5.75 µM (inactive) | 4.83 µM (inactive) | 4.02 µM (inactive) | 6.31 µM (inactive) | 3.65 µM (inactive) | 3.21 µM (inactive) | 6.43 µM (inactive) | 2.12 µM (inactive) | 7.94 µM (inactive) | 5.86 µM (inactive) | 2.08 µM (inactive) | 3.31 µM (inactive)
CCOC(=O)C(Cc1ccc(N(CCCl)CCCl)cc1)NC(=O)C(Cc1ccccc1)NC(C)=O (stereo not given) | 0.275 µM (active) | > 0.582 µM (active) | 0.235 µM (active) | > 0.296 µM (active) | 0.0581 µM (active) | 0.111 µM (active) | > 1 µM (active) | 0.106 µM (active) | 0.0255 µM (active) | 0.222 µM (active) | 0.213 µM (active) | 0.163 µM (active) | 0.236 µM (active) | 0.106 µM (active) | 0.155 µM (active) | > 0.347 µM (active) | 0.157 µM (active) | 0.0414 µM (active) | 0.184 µM (active) | > 0.322 µM (active)
CC(C)(C)c1cc(/C=C(\C#N)C(=O)NCCO)cc(C(C)(C)C)c1O | 21.2 µM (inactive) | 34 µM (inactive) | 17.5 µM (inactive) | 20.7 µM (inactive) | 18.7 µM (inactive) | 25.1 µM (inactive) | 31.8 µM (inactive) | 27.4 µM (inactive) | 27.2 µM (inactive) | 20.7 µM (inactive) | 20.5 µM (inactive) | 26.5 µM (inactive) | 28.8 µM (inactive) | 19.9 µM (inactive) | 19 µM (inactive) | 24.5 µM (inactive) | 20.1 µM (inactive) | 40.7 µM (inactive) | 21.8 µM (inactive) | 38.6 µM (inactive)
Oc1c(Cl)ccc2cccnc12 | 3.75 µM (inactive) | 9.73 µM (inactive) | 6.03 µM (inactive) | 4.71 µM (inactive) | 1.84 µM (inactive) | 1.94 µM (inactive) | 11.6 µM (inactive) | 1.83 µM (inactive) | 3.61 µM (inactive) | 3.4 µM (inactive) | 4.25 µM (inactive) | 1.02 µM (active) | 2.53 µM (inactive) | 3.35 µM (inactive) | 4.58 µM (inactive) | 3.43 µM (inactive) | 1.2 µM (inactive) | 0.223 µM (active) | 6.18 µM (inactive) | 2.63 µM (inactive)
CCO/N=C(/CC)c1ccc(Br)s1 | > 100 µM (inactive) | > 100 µM (inactive) | > 100 µM (inactive) | > 100 µM (inactive) | 53.5 µM (inactive) | 80.5 µM (inactive) | > 100 µM (inactive) | > 100 µM (inactive) | > 100 µM (inactive) | > 100 µM (inactive) | > 100 µM (inactive) | > 100 µM (inactive) | > 100 µM (inactive) | > 100 µM (inactive) | > 100 µM (inactive) | > 100 µM (inactive) | > 100 µM (inactive) | > 100 µM (inactive) | > 100 µM (inactive) | > 100 µM (inactive)
Nc1nc(Cl)cc(NCC2(O)CCCC2)n1 | > 100 µM (inactive) | > 100 µM (inactive) | > 100 µM (inactive) | > 100 µM (inactive) | > 100 µM (inactive) | > 100 µM (inactive) | > 100 µM (inactive) | > 100 µM (inactive) | > 100 µM (inactive) | > 100 µM (inactive) | > 100 µM (inactive) | > 100 µM (inactive) | > 100 µM (inactive) | 78.9 µM (inactive) | > 100 µM (inactive) | > 100 µM (inactive) | > 100 µM (inactive) | > 100 µM (inactive) | > 100 µM (inactive) | > 100 µM (inactive)
C[C@@]12C[C@@H](c3ccccc3O1)N1Cc3ccccc3CSC1=N2 | > 100 µM (inactive) | 69.3 µM (inactive) | 66.5 µM (inactive) | > 100 µM (inactive) | 56.6 µM (inactive) | 35.5 µM (inactive) | > 100 µM (inactive) | > 100 µM (inactive) | > 100 µM (inactive) | 42.8 µM (inactive) | 35.2 µM (inactive) | 50.4 µM (inactive) | > 100 µM (inactive) | > 100 µM (inactive) | > 100 µM (inactive) | > 100 µM (inactive) | 72.9 µM (inactive) | > 100 µM (inactive) | 38.8 µM (inactive) | > 100 µM (inactive)
Cc1cc(NC[C@H](O)[C@H](O)[C@H](O)CO)c(Sc2cc(=O)[nH]c(=O)[nH]2)cc1C | > 62.5 µM (inactive) | > 62.5 µM (inactive) | > 62.5 µM (inactive) | > 62.5 µM (inactive) | > 62.5 µM (inactive) | > 62.5 µM (inactive) | > 62.5 µM (inactive) | > 62.5 µM (inactive) | > 62.5 µM (inactive) | > 62.5 µM (inactive) | > 62.5 µM (inactive) | > 62.5 µM (inactive) | > 62.5 µM (inactive) | > 62.5 µM (inactive) | > 62.5 µM (inactive) | > 62.5 µM (inactive) | > 62.5 µM (inactive) | > 62.5 µM (inactive) | > 62.5 µM (inactive) | > 62.5 µM (inactive)
Cc1cc(S(=O)(=O)Nc2nc(N)nc(N(C)C)n2)c(S)cc1Cl | > 10 µM (inactive) | > 10 µM (inactive) | > 10 µM (inactive) | > 10 µM (inactive) | > 10 µM (inactive) | > 10 µM (inactive) | > 10 µM (inactive) | > 10 µM (inactive) | > 10 µM (inactive) | > 10 µM (inactive) | > 10 µM (inactive) | > 10 µM (inactive) | > 10 µM (inactive) | > 10 µM (inactive) | > 10 µM (inactive) | > 10 µM (inactive) | > 10 µM (inactive) | > 10 µM (inactive) | > 10 µM (inactive) | > 10 µM (inactive)
Oc1ncc(N(CCCl)CCCl)c(O)n1 [URACIL MUSTARD] | 15 µM (inactive) | 22.3 µM (inactive) | 51.1 µM (inactive) | 47.2 µM (inactive) | 1.59 µM (inactive) | 14.1 µM (inactive) | 26.3 µM (inactive) | 20.7 µM (inactive) | 2.67 µM (inactive) | 3.48 µM (inactive) | 63 µM (inactive) | 14.6 µM (inactive) | 35.3 µM (inactive) | 47.3 µM (inactive) | 8.65 µM (inactive) | 85.7 µM (inactive) | 12.9 µM (inactive) | 81.3 µM (inactive) | 10 µM (inactive) | 42.2 µM (inactive)
Cc1cc2c(c(/C=N/c3ccc([N+](=O)[O-])cc3)c1)OC1(C=C2)Oc2ccccc2C(=O)N1C (stereo not given) | 29.9 µM (inactive) | 22.3 µM (inactive) | 21.2 µM (inactive) | 22.2 µM (inactive) | 4.94 µM (inactive) | 12.8 µM (inactive) | 14.6 µM (inactive) | 18.5 µM (inactive) | 14.8 µM (inactive) | 21.8 µM (inactive) | 20 µM (inactive) | 17.6 µM (inactive) | 29.1 µM (inactive) | 13.5 µM (inactive) | 20.5 µM (inactive) | 13.6 µM (inactive) | 7.89 µM (inactive) | 18.8 µM (inactive) | 22.6 µM (inactive) | 16.1 µM (inactive)
